Experimental data reported in patent publication US8053417B2, “Hexosylceramides as adjuvants and their uses in pharmaceutical compositions” (Helmholtz-Zentrum fuer Infektionsforschung GmbH, priority 2005, dated 2011).

Key:
[1] = background statement; cited from earlier work
[2] = test system: spleens of vaccinated mice; test: Elispot of beta-Gal specific cytokine secreting cells in spleens of vaccinated mice; type: in vivo
Procedure: Experimental protocol: Spleens from vaccinated mice were removed and pooled for analysis of cellular immune responses. The protocol for vaccination was identical to the protocol described in Example 3. Cells were grown in RPMI 1640 supplemented with 10% fetal calf serum, 100 U/ml of penicillin, 50 μg/ml of streptomycin, 5×10^−5 M 2-mercaptoethanol and 1 mM L-glutamine (GIBCO BRL, Karlsruhe, Germany) and maintained at 37° C. in a humidified 5% CO2 atmosphere. Lymph node and spleen cell suspensions were adjusted to 5×10^6 cells/ml in complete medium, cells were seeded with 100 μl per well in a flat-bottomed 96-well microtiter plate (Nunc) and plates were incubated 24 h (IFNgamma) or 48 h (IL-2 and IL-4) in the absence or presence of a beta-Gal peptide (TPHARIGL) encompassing a MHC class I-restricted epitope (for IFNgamma) or the beta-Gal protein (for IL-2 and IL-4), at a concentration of 10 μM. Then, cells were removed and the plates processed according to manufacture's instructions. Colored spots were counted with a C.T.L. Elispot reader and analysed using the ImmunoSpot image analyzer software v3.2.
Thus, to further characterize the T helper responses, the number of beta-Gal specific IFNgamma, IL-2 and IL-4 secreting cells present in spleens of vaccinated mice was determined. In agreement with the above results for IgG isotypes, high numbers of IL-4 secreting cells were detected in mice receiving alphaGalCerMPEG or alphaGalCer (FIG. 10).

[3] = test system: Unstimulated spleen cells; test: In vitro stimulation of unstimulated spleen cells ([3H]thymidine uptake); type: cell-based, mice; settings: 4 days
Procedure: Experimental protocol: Spleens from female BALB/c (H-2d, Harlan Winkelmann) or CD1d−/− (Jackson Laboratories) mice of 6 weeks of age were removed and pooled for analysis of cellular immune responses. Cells were grown in RPMI 1640 supplemented with 10% fetal calf serum, 100 U/ml of penicillin, 50 μg/ml of streptomycin, 5×10^−5 M 2-mercaptoethanol and 1 mM L-glutamine (GIBCO BRL, Karlsruhe, Germany) and maintained at 37° C. in a humidified 5% CO2 atmosphere. Spleen cell suspensions were adjusted to 5×10^6 cells/ml in complete medium, cells were seeded with 100 μl per well in a flat-bottomed 96-well microtiter plate (Nunc) and plates were incubated for 4 days. Unstimulated spleen cells were incubated in the presence of different concentrations of the new adjuvants to analyze the in vitro stimulation capacity of alphaGalCerMPEG. T cell mediated immune responses were investigated at day 38 by measuring the proliferation of cells recovered from spleens after in vitro restimulation with β-Gal. […] Cells were then harvested on paper filters (Filtermat A; Wallac, Freiburg, Germany) by using a cell harvester (Inotech, Wohlen, Switzerland), and the amount of incorporated [3H]thymidine into the DNA of proliferating cells was determined by a β-scintillation counter (Wallac 1450, Micro-Trilux). The results are expressed as the arithmetic mean of [3H]thymidine uptake in cpm.

YAC-1 cells = test: 51Cr-release assay with splenocytes of injected mice as effectors and YAC-1 cells as targets for NK cells; type: in vivo
Procedure: Experimental protocol: Mice received 10 μg of alphaGalCer or alphaGalCerMPEG by s.c. route, whereas control animals were injected by intraperitoneal route with 100 μg of CpG. After 2 days, they were sacrified and their splenocytes were used as effector cells in a standard 51Cr-release assay using YAC-1 cells as targets for NK cells. Effector cells were washed and their concentration was adjusted to 1×10^6/ml. In parallel, target cells were incubated in RPMKI medium without FCS containing 100 μCi of 51Cr for 2 h. Then, target cells were extensively washed with RPMI medium containing FCS and co-incubated in triplicates with effector cells at different effector:target (E:T) ratios. After 4 h, cells were centrifuged and the radioactivity present in supernatants was measured by scintillation counting. Maximal lysis was determined after lysis with 5% […], whereas spontaneous lysis was measured in supernatants of untreated target cells. Results are expressed as percentage of lysed cells, accordingly to the formula: (sample−spontaneous lysis)/(maximal lysis−spontaneous lysis)×100.

C57BI6 mice = test: VITAL assay (in vivo CTL), lysis of OVA peptide-pulsed target cells in immunized mice; settings: 10 μg adjuvant with 50 μg Ovalbumin
Procedure: Experimental protocol: Six to eight weeks-old female C57BI6 mice were purchased from Harlan Winkelmann GmbH (Borchen, Germany) and treated in accordance with local and European Community guidelines. Groups of 5 mice each were immunized on day 1, 14 and 28 with 50 μg Ovalbumin (Sigma, Germany) alone or with 10 μg alphaGalCerMPEG or alphaGalCer. For intranasal immunization, 10 μl were applied to each naris, whereas for the s.c. injection Ovalbumin (ova) with or without alphaGalCerMPEG or alphaGalCer was resuspended in a volume of 50 μl PBS per animal. The determination of the in vivo lymphocyte-mediated cytotoxicity followed a protocol described by Hermans et. Al. (Herman, I. F., et. Al., 2004, The vital assay, J Immunol Methods, 285, 25-40). A suspension of splenocytes from naïve mice was depleted of red cells and split into two equal portions. The target cell preparation was labelled with a high concentration (1 μM) of CFSE (Molecular Probes) and pulsed for 1 h at 37° C. with the dominant OVA peptide (aa 257-264) at a concentration of 15 μg/ml. […] Cells from spleens were analyzed by flow cytometry after 16 h and 40 h, with the FACScalibur using the software BD cell Quest Pro. […] Cytotoxic activity was assessed with any variability in the proportion of cells in the different target populations assessed in a non-immunized control group for CTL assays.

[4] = test system: in vitro re-stimulated spleen cells; test: Cytometric Bead Array of cytokines in supernatants of in vitro re-stimulated spleen cells from vaccinated mice; type: in vivo; settings: parenteral administration (s.c.) with β-Gal
Procedure: To characterize the type of Th response stimulated following immunization, the content of IFN-γ, IL-2, IL-6, IL-10, MCP-1, and TNFα was measured in supernatants from in vitro re-stimulated spleen cells (FIGS. 8 and 9) by the Cytometric Bead Array. Culture supernatants from proliferating cells were collected on days 2 and 4, and stored at −70° C. Determinations of IFN-γ, TNFα, IL-2, IL-6, IL-10 and MCP-1 were performed by cytometric bead array analysis using the commercial kit from BectonDickinson, according to the manufacturer's instructions. A standard curve was generated for each cytokine by using the corresponding recombinant murine cytokines (Pharmingen). Probes were incubated at room temperature for additional 2 h. The probes were analyzed subsequently by flow cytometry as described in the protocol of BD.

SMILES: CCCCCCCCCCCCCCCCCCCCCCCCCC(=O)N[C@@H](CO[C@H]1O[C@H](CO)[C@H](O)[C@H](O)[C@H]1O)[C@H](O)[C@H](O)CCCCCCCCCCCCCC [alphaGalCer, alpha-Galactosylceramide]
- solubility in aqueous solvents [1]: poor
- number of IL-4 secreting cells ([2]; spleens of vaccinated mice, beta-Gal protein 10 μM, 48 h): high numbers
- number of IFNgamma secreting cells ([2]; stimulation with MHC class I restricted peptide, 24 h): increased to a significant minor extent
- number of IL-2 secreting cells ([2]; stimulation with β-Gal protein, 48 h): increased to a significant minor extent
- stimulation of unstimulated spleen cells with different concentrations [3]: no dose dependent increase
- lysis of YAC-1 cells (YAC-1 cells; effector:target ratio 50:1, splenocytes 2 days after injection): 34%
- lysis of YAC-1 cells (YAC-1 cells; effector:target ratio 100:1, splenocytes 2 days after injection): 37%
- fold increase of the cytotoxic potential of splenocytes with respect to OVA antigen alone (5%) (C57BI6 mice): 6.4 fold
- specific lysis of peptide-coated target cells (C57BI6 mice; day 1, 14 and 28): 30%
- secretion of IFNgamma [4]: significant enhanced secretion
- secretion of IL-10 [4]: significant enhanced secretion
- secretion of TNFalpha [4]: significant enhanced secretion
